Assay results taken from patent US10806726B2, “Methods of using indazole-3-carb oxamides and their use as Wnt/B-catenin signaling pathway inhibitors” (Samumed, LLC, priority 2016, dated 2020).
pEC50: −log10 of the molar value.

Legend:
KC/GRO in plasma = assay: Rat Tendinopathy Model (2), plasma biomarker KC/GRO; assay type: in vivo
Experimental: (§1) Fifty (50 μl) of Collagenase Type IA (10 mg/ml in PBS, pH 7.4, approximately 469 units/mg) (Catalog # C5138, Sigma, St. Louis, Mo.) was injected into the Achilles tendon of both ankles near the osteotendinous junction of male Sprague Dawley CD® IGS rats (CRL, Inc.), using insulin syringes with 28.5 G needle.
(§2) Rats were divided into 6 groups, with 6 animals per group except 8 animals in Group 2: Group 1 (sham injection), Group 2 (Collagenase-Vehicle with 0.5% Phx), Group 3 (Collagenase-compound 175 3 mg/mL with 0.5% BA), Group 4 (Collagenase-compound 175 10 mg/mL with 0.5% BA), Group 5 (Collagenase-compound 175 3 mg/mL with 0.5% Phx) and Group 6 (Collagenase-compound 175 10 mg/mL with 0.5% Phx). […] All rats were periodically observed for any pain, illnesses or abnormalities. At various time points, blood was collected for plasma in lithium heparin coated tubes by saphenous vein bleeding. For histology, rats were euthanized using isoflurane, tendons were isolated (n=8 tendons/group), fixed in 10% buffered formalin (Catalog # SF93-4, Fisher, Pittsburgh, Pa.) and H & E histology staining was performed at a secondary site (Pacific Pathology, San Diego, Calif.). For biochemical analysis, tendons were isolated (n=4 tendons/group), flash frozen in liquid nitrogen and then stored at −80° C. for subsequent biochemical analysis (not reported). Additionally, one (1) day after collagenase injection, 4 tendons were collected from Group 2 (vehicle) to observe the induction of inflammation (not reported).
Following manufacturer's instructions, KC/GRO plasma levels were determined using the KC/GRO Immunoassay kit (Cat #900-K57, Peprotech, Rocky Hill, N.J.). Briefly, 96-well plates were coated with the anti-rat KC/GRO capture antibody overnight and washed to remove excess antibody. Plasma samples were incubated in the coated plates for 2 hours at room temperature. Following washes to remove unbound proteins, biotinylated anti-rat KC/GRO detection antibody was added and incubated for 30 mins at room temperature. Following washes to remove unbound excess antibody, avidin-HRP was added and incubated for 30 mins at room temperature. Following washes to remove unbound avidin-HRP, the ABTS substrate was added and the plates were read on the Cytation 3 plate reader (Biotek Inc., Winooski, Vt.) at an absorbance of 525 nm with correction at 450 nm. All samples were processed in triplicate.

[1] = test system: Wnt responsive promoter linked to luciferase gene in SW480 cells; assay: Wnt Reporter Assay, SW480, 48 hours (Example 10); assay type: cell-based; conditions: Homo sapiens, 10-0.0003 μM, read-out: EC50, inhibition of Wnt pathway activity
Experimental: SW480 cells (ATCC) were cultured in Dulbecco's modified Eagle's medium (DMEM, ThermoFisher) with 1% Glutamax (Life Technologies), 1% Penicillin-Streptomycin (Life Technologies), 150 ug/ml Hygromycin (Life Technologies) with 10% fetal bovine serum (FBS) (Hyclone) at 37° C., 5% CO2.
Wnt Reporter Assay. Human colorectal cancer cell line SW480, stably expressing the Wnt responsive promoter linked to luciferase gene, was plated overnight at 4×10e^4 cells/well in DMEM, high glucose, no glutamine, no phenol red (Life Technologies), 1% Glutamax (Life Technologies), 1% Sodium Pyruvate (Life Technologies), 1% Penicillin-Streptomycin (Life Technologies) with 1% Fetal Bovine Serum (Hyclone). Cells were then treated with DMSO (vehicle control) or COMPOUND 175 at 10 μM top concentration and half a log dilution up to 10 concentrations (10, 3, 1, 0.3, 0.1, 0.03, 0.01, 0.003, 0.001 and 0.0003 μM). Cells were incubated for 48 hours at 37° C. 15 μl of Bright-Glo (Bright-Glo™ Luciferase Assay System, Promega) was added to the cells and luminescence was measured using the Cytation 3 plate reader (Biotek). Data was normalized using the DMSO control and inhibition profile and EC50 was calculated using Prism 4 (GraphPad Software Inc, La Jolla, Calif., USA). Prism 4.0 was used to calculate the EC50 of the Wnt reporter inhibition assay.

[2] = test system: collagenase-induced tendonitis of the Achilles tendon in Sprague Dawley rats; assay: Rat Tendinopathy Model (2), collagenase-induced, tendon histology scoring; assay type: in vivo; conditions: for tendon histology score: topical once daily 21 days, total score of 20
Experimental: as §1, §2
There is biological variability in response to collagenase when injected directly into the tendons. […] Therefore, the entire tendon was isolated and placed in a tissue cassette and embedded in paraffin. Five (5) μm sections were generated with an average of 3 sections being fixed on one slide with a minimum of eight (8) slides per tendon and subjected to Hematoxylin & Eosin (H&E) staining. Slides were viewed under an upright light microscope (EVOS AMEX-1200) at a 10× magnification and scored blinded using a 1-4 scoring system of severity: 1-representing severe damage and 4—representing normal tendon, for Linearity of the fiber structure, Shape of the tendon cells, Density of the tendon cells, Inflammation, and Hemorrhage for a total score of twenty (20) using a modification of that described previously (Urdzikova et al., 2014—see Table 3). After the analysis was completed, the scorer was unblinded and scores for each criterion was annotated, totaled and total scores from each section were averaged together to generate a final score for each rat followed by averaging of scores for a given treatment group.
For tendon scoring, each section was analyzed following a 1-4 point scoring system as previously described (Urdzikova et al., 2014) with the exclusion of one variable, Thickness of the epitenon, due to difficulty in discerning the epitenon layer in the histology sections. In this study, a total of 94 sections were scored for Group 1 (sham injection, control group) and between 92-116 sections for Group 2 (Collagenase-Vehicle with 0.5% Phx); Group 3 (Collagenase-compound 175 3 mg/mL with 0.5% BA), Group 4 (Collagenase-compound 175 10 mg/mL with 0.5% BA), Group 5 (Collagenase-compound 175 3 mg/mL with 0.5% Phx) and Group 6 (Collagenase-compound 175 10 mg/mL with 0.5% Phx).

[3] = 3 and 10 mg/mL, with either BA or Phx as preservative

Q: Which “plasma KC/GRO vs vehicle” value (KC/GRO in plasma; [3]) does the source give for `COc1ccc(NC(=O)c2n[nH]c3ccc(-c4cncc(CN5CCCCC5)c4)cc23)cn1` [compound 175, N-(6-Methoxypyridin-3-yl)-5-(5-(piperidin-1-ylmethyl)pyridin-3-yl)-1H-indazole-3-carboxamide] here?
A: The value was “significantly decreased the levels of KC/GRO in plasma”.

Q: And the “Plasma KC/GRO Concentration” value (KC/GRO in plasma; Day 0, Group 3, 3 mg/mL, 0.5% BA)?
A: The value was 78.2 ± 14.9 pg/mL.

Q: And the “Plasma KC/GRO Concentration” value (KC/GRO in plasma; Day 0, Group 4, 10 mg/mL, 0.5% BA)?
A: Its value is 224 ± 40.1 pg/mL.

Q: What about the “Plasma KC/GRO Concentration” value (KC/GRO in plasma; Day 0, Group 5, 3 mg/mL, 0.5% Phx) of the same compound?
A: Its value is 112 ± 74.0 pg/mL.

Q: And the “Plasma KC/GRO Concentration” value (KC/GRO in plasma; Day 0, Group 6, 10 mg/mL, 0.5% Phx)?
A: The value was 254 ± 60.6 pg/mL.

Q: What about the “Plasma KC/GRO Concentration” value (KC/GRO in plasma; Day 1, Group 3, 3 mg/mL, 0.5% BA) of the same compound?
A: Its value is 472 ± 47.2 pg/mL.

Q: And the “Plasma KC/GRO Concentration” value (KC/GRO in plasma; Day 1, Group 4, 10 mg/mL, 0.5% BA)?
A: Its value is 360 ± 31.4 pg/mL.

Q: And the “Plasma KC/GRO Concentration” value (KC/GRO in plasma; Day 1, Group 5, 3 mg/mL, 0.5% Phx)?
A: Its value is 416 ± 47.9 pg/mL.

Q: And the “Plasma KC/GRO Concentration” value (KC/GRO in plasma; Day 1, Group 6, 10 mg/mL, 0.5% Phx)?
A: Its value is 375 ± 44.4 pg/mL.

Q: And the “Plasma KC/GRO Concentration” value (KC/GRO in plasma; Day 3, Group 3, 3 mg/mL, 0.5% BA)?
A: Its value is 449 ± 53.9 pg/mL.

Q: What about the “Plasma KC/GRO Concentration” value (KC/GRO in plasma; Day 3, Group 4, 10 mg/mL, 0.5% BA) of the same compound?
A: Its value is 454 ± 52.2 pg/mL.

Q: And the “Plasma KC/GRO Concentration” value (KC/GRO in plasma; Day 3, Group 5, 3 mg/mL, 0.5% Phx)?
A: Its value is 374 ± 89.1 pg/mL.

Q: What about the “Plasma KC/GRO Concentration” value (KC/GRO in plasma; Day 3, Group 6, 10 mg/mL, 0.5% Phx) of the same compound?
A: The value was 405 ± 42.1 pg/mL.

Q: And the “Plasma KC/GRO Concentration” value (KC/GRO in plasma; Day 5, Group 3, 3 mg/mL, 0.5% BA)?
A: Its value is 561 ± 97.2 pg/mL.

Q: What about the “Plasma KC/GRO Concentration” value (KC/GRO in plasma; Day 5, Group 4, 10 mg/mL, 0.5% BA) of the same compound?
A: Its value is 327 ± 49.9 pg/mL.

Q: And the “Plasma KC/GRO Concentration” value (KC/GRO in plasma; Day 5, Group 5, 3 mg/mL, 0.5% Phx)?
A: Its value is 431 ± 24.5 pg/mL.

Q: And the “Plasma KC/GRO Concentration” value (KC/GRO in plasma; Day 5, Group 6, 10 mg/mL, 0.5% Phx)?
A: Its value is 328 ± 37.1 pg/mL.

Q: And the “Plasma KC/GRO Concentration” value (KC/GRO in plasma; Day 7, Group 3, 3 mg/mL, 0.5% BA)?
A: Its value is 445 ± 54.5 pg/mL.

Q: What about the “Plasma KC/GRO Concentration” value (KC/GRO in plasma; Day 7, Group 4, 10 mg/mL, 0.5% BA) of the same compound?
A: Its value is 396 ± 92.4 pg/mL.

Q: And the “Plasma KC/GRO Concentration” value (KC/GRO in plasma; Day 7, Group 5, 3 mg/mL, 0.5% Phx)?
A: The value was 422 ± 47.9 pg/mL.

Q: What about the “Plasma KC/GRO Concentration” value (KC/GRO in plasma; Day 7, Group 6, 10 mg/mL, 0.5% Phx) of the same compound?
A: Its value is 299 ± 53.9 pg/mL.

Q: And the “Plasma KC/GRO Concentration” value (KC/GRO in plasma; Day 14, Group 3, 3 mg/mL, 0.5% BA)?
A: Its value is 319 ± 57.7 pg/mL.

Q: What about the “Plasma KC/GRO Concentration” value (KC/GRO in plasma; Day 14, Group 4, 10 mg/mL, 0.5% BA) of the same compound?
A: The value was 343 ± 59.4 pg/mL.

Q: What about the “Plasma KC/GRO Concentration” value (KC/GRO in plasma; Day 14, Group 5, 3 mg/mL, 0.5% Phx) of the same compound?
A: The value was 505 ± 41.0 pg/mL.

Q: And the “Plasma KC/GRO Concentration” value (KC/GRO in plasma; Day 14, Group 6, 10 mg/mL, 0.5% Phx)?
A: Its value is 265 ± 20.8 pg/mL.

Q: And the “Plasma KC/GRO Concentration” value (KC/GRO in plasma; Day 21, Group 3, 3 mg/mL, 0.5% BA)?
A: The value was 150 ± 53.8 pg/mL.

Q: What about the “Plasma KC/GRO Concentration” value (KC/GRO in plasma; Day 21, Group 4, 10 mg/mL, 0.5% BA) of the same compound?
A: The value was 350 ± 25.6 pg/mL.

Q: And the “Plasma KC/GRO Concentration” value (KC/GRO in plasma; Day 21, Group 5, 3 mg/mL, 0.5% Phx)?
A: Its value is 226 ± 37.3 pg/mL.

Q: And the “Plasma KC/GRO Concentration” value (KC/GRO in plasma; Day 21, Group 6, 10 mg/mL, 0.5% Phx)?
A: The value was 342 ± 39.7 pg/mL.

Q: What about the “plasma KC/GRO levels, range” value (KC/GRO in plasma; Days 5-21, all four treated groups) of the same compound?
A: The value was 150 to 561 pg/mL.

Q: What about the pEC50 [1] of the same compound?
A: The pEC50 was 6.82.

Q: And the “blinded histology scoring of tendon injury and inflammation vs vehicle” value [2, 3]?
A: Its value is “significantly ameliorated collagenase-induced tendinopathy”.

Q: And the tendon histology score ([2]; Group 3, 3 mg/mL with 0.5% BA)?
A: The tendon histology score was 14.5 (±1.15).

Q: And the tendon histology score ([2]; Group 4, 10 mg/mL with 0.5% BA)?
A: The tendon histology score was 14.8 (±0.968).

Q: What about the tendon histology score ([2]; Group 5, 3 mg/mL with 0.5% Phx) of the same compound?
A: The tendon histology score was 15.1 (±0.506).

Q: What about the tendon histology score ([2]; Group 6, 10 mg/mL with 0.5% Phx) of the same compound?
A: The tendon histology score was 13.2 (±0.855).
